This is an account of results in patent publication US10988505B2.

One assay concerns X31 H3N2 influenza virus. The experiment in a line: Influenza virus replication X31 in Calu-3 cells (viral plaque assay). It is filed as cell-based. Conditions: Calu-3 human bronchial epithelial cells, 48 h, read-out: calu3_x31_H3N2 EC50 (avg).
The target of assay [1] is recombinant human matriptase (Homo sapiens (Human), UniProt Q9Y5Y6). The experiment in a line: Matriptase inhibition, Ki determination. The class given is biochemical. The following applies: purified recombinant human matriptase, Boc-Gln-Ala-Arg-AMC substrate, pH 7.4.
recombinant human matriptase, sequence (Q9Y5Y6 615-855, other chains not shown): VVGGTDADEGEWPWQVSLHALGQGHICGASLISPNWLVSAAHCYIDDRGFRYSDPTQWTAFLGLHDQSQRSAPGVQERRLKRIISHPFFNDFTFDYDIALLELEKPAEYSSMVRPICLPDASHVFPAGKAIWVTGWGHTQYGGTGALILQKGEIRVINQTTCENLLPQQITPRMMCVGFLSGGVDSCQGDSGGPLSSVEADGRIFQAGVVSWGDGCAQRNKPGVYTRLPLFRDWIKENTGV
The test system of the next assay is cartilage damage. Description: Osteoarthritis (OA) model, DMM surgery. It is filed as in vivo, C57BL/6J mice. The following applies: DMM mice, 5 microlitre intraarticular injections of 10 mg/ml in saline on days 7 and 28, scored day 56. As for the experimental part:
The ability of the tested compound to protects against in vivo aggrecan loss in an osteoarthritis (OA) model was evaluated as described by Litherland G J. et al. Arthritis Rheumatol 2014; 66:2175-87.
OA was induced in C57BL/6J mice following destabilization of the medial meniscus (DMM) surgery. Mice received 5 microlitre intraarticular injections of either saline or Compound 1 (10 mg/ml in saline) on days 7 and 28 post surgery. At day 56 post-surgery, mice were killed, knee joints isolated and fixed overnight in 7% formaldehyde in PBS. Joints were decalcified in EDTA in PBS for 10 days and then wax embedded. Consecutive sections (6 μm) were stained with safranin 0 with hematoxylin counterstaining and then cartilage damage graded (by two blinded, independent observers) according to a published grading system [Litherland, 2014]: 0 (normal) to 6 (vertical clefts/erosion to the calcified cartilage extending to […] of the articular surface). Bars show the mean+/−SD of the highestscores in the medial tibial and femoral condyles for each joint. […] The results are depicted in FIG. 1.
**P<0.01 for the control and ***P<0.001 for Compound 1, by Kruskal-Wallis test with Dunn's multiple comparison test.

On to `C[C@H](NC(=O)[C@H](CCC(N)=O)NC(=O)[C@@H](N)CCCNC(=N)N)C(=O)N[C@@H](CCCNC(=N)N)C(=O)c1nc2ccccc2s1` [Comparative #1, reference compound], for which the concentration for a half-maximal effect (EC50) in the assay with X31 H3N2 influenza virus stood at 7700 nM.

As for `C[C@H](NC(=O)[C@@H](N)CCC(N)=O)C(=O)N[C@@H](CCCNC(=N)N)C(=O)c1nc2ccccc2s1` [Comparative #2, reference compound], the inhibition constant (Ki) in assay [1] was 0.0877 nM. The half-maximal effective concentration (EC50) in the assay with X31 H3N2 influenza virus is 5690 nM.

As to `N=C(N)NCCCCC(=O)N[C@@H](CCC(N)=O)C(=O)N[C@@H](Cc1ccccc1)C(=O)N[C@@H](CCCNC(=N)N)C(=O)c1nc2ccccc2s1` [Example 1], in assay [1], the Ki worked out at 0.134 nM. For the same molecule, in the assay with X31 H3N2 influenza virus, the EC50 came to 20.9 nM. Moreover, in the assay on cartilage damage, the cartilage damage score entry is reported as “decreased the cartilage damage score”.

With `CC(=O)N[C@@H](CCC(N)=O)C(=O)N[C@@H](Cc1ccccc1)C(=O)N[C@@H](CCCNC(=N)N)C(=O)c1nc2ccccc2s1` [Example 3], the EC50 in the assay on X31 H3N2 influenza virus turned out to be 34 nM.
